# Data reported in PMC8498988, “Scaffold Hybridization Strategy Leads to the Discovery of Dopamine D3 Receptor-Selective or Multitarget Bitopic Ligands Potentially Useful for Central Nervous System Disorders” (ACS Chemical Neuroscience, 2021).
# Tests used:
# 5-HT2AR [1] = biological target: T1, 5-HT2AR (Homo sapiens, UniProt P28223); experiment: Radioligand binding assay at human 5-HT2AR ([125I]DOI, HEK cells); parameters: expressed in transfected cells; host or cells: HEK (HEK-h5HT2A); settings: HEK cells expressing h5-HT2AR, read-out: Ki ± SEM, 5-HT2AR
# T1 sequence (P28223 whole entry): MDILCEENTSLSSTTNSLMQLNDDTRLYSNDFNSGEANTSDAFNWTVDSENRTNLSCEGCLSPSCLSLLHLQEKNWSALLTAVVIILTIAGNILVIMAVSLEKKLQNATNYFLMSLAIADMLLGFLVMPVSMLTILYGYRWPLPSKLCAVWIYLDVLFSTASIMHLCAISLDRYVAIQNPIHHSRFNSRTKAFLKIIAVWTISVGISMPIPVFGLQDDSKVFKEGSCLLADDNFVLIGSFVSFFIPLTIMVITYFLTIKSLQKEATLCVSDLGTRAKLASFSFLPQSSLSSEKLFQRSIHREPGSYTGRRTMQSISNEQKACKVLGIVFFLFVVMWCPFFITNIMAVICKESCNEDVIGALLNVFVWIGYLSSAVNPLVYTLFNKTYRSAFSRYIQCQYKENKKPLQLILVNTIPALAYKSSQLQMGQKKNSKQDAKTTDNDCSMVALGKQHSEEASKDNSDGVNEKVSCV
# Description: Human embryonic kidney cells expressing human 5HT2AR (HEK-h5HT2A) or human 5HT2CR (HEK-h5HT2C) are used. The cells are grown until confluent on 15 cm plates. The medium is removed, and the cells are washed with phosphate-buffered saline (PBS), scraped into 2 mL PBS, and frozen at −20 °C until needed. Cell suspension is thawed, 10 mL assay buffer (50 mM Tris, pH 7.4 at 37 °C, with 0.1% ascorbic acid and 5 mM CaCl2) is added per plate of cells, and polytronned at setting 6 for 5 s. The homogenate is centrifuged at 15,500 rpm for 20 min. To minimize the residual 5HT concentration, the pellet is resuspended in buffer, polytronned, and centrifuged as mentioned above. The final pellet is resuspended in 2 mL buffer/plate of cells. The binding assay includes 50 μL drug, 5-HT or buffer, 50 μL cell homogenate, 50 μL [^125I]DOI (∼0.1 nM), and buffer in a final volume of 250 μL. Specific binding is defined as the difference between total binding and binding in the presence of 10 μM 5HT. The reaction is incubated for 1 h at 37 °C and terminated by filtration through Wallac A filter mats presoaked in 0.05% polyethylenimine using a Tomtec 96-well harvester. The radioactivity remaining on filters is determined using a Wallac betaplate reader.
# human 5-HT1AR = biological target: T2, human 5-HT1AR (Homo sapiens, UniProt P08908); experiment: 5-HT1A [35S]GTPγS binding assay (HeLa cell membranes); format: biochemical; settings: for EC50 / % stimul., 5-HT1A [35S]GTPγS binding: agonist mode; for % stimul., 5-HT1A [35S]GTPγS binding: standard agonist serotonin; for functional behavior at 5-HT1AR: in words
# T2 construct: expressed in transfected cells; host or cells: HeLa
# T2 sequence (P08908 1-422): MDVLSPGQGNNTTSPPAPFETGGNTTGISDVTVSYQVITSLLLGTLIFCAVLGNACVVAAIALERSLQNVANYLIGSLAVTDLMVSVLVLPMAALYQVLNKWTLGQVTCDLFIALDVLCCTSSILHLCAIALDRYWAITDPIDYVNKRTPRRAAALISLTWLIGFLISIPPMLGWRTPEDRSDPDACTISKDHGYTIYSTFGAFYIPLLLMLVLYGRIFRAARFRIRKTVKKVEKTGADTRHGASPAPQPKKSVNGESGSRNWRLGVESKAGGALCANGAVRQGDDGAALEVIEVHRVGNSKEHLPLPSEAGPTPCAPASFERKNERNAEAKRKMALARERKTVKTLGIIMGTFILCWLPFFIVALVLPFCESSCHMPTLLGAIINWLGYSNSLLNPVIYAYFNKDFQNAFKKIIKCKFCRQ
# Description: The effects of the various compounds tested on [^35S]GTPγS binding in HeLa cells expressing the recombinant human 5-HT1AR were evaluated according to the method of Stanton and Beer with minor modifications. The stimulation experiments are as follows: Cell membranes (50–70 μg of protein) were resuspended in buffer containing 20 mM HEPES, 3 mM MgSO4, and 120 mM NaCl (pH 7.4). […] The samples were transferred to ice, [^35S]GTPγS (200 pM) was added, and the samples were incubated for further 30 min at 30 °C. The preincubation with both agonist and antagonist, before initiating the [^35S]GTPγS binding, ensures that agonist and antagonist are at equilibrium. Nonspecific binding was determined in the presence of […]. Incubation was stopped by the addition of ice-cold HEPES buffer and rapid filtration on Unifilter B filters (PerkinElmer) using a Filtermate cell harvester (Packard). The filters were washed with ice-cold Hepes buffer, and the radioactivity retained on the filters was determined by a TopCount, PerkinElmer liquid scintillation counter at 90% efficiency.
# human D1R = biological target: T3, human D1R (Homo sapiens, UniProt P21728); experiment: Radioligand binding assay at human D1R ([3H]SCH23390, mouse fibroblast LhD1 cells); settings: [3H]SCH23390, mouse fibroblast cells expressing hD1R; read-out: Ki ± SEM, D1R
# T3 construct: expressed in transfected cells; host or cells: mouse fibroblast cells (LhD1)
# T3 sequence (P21728 whole entry): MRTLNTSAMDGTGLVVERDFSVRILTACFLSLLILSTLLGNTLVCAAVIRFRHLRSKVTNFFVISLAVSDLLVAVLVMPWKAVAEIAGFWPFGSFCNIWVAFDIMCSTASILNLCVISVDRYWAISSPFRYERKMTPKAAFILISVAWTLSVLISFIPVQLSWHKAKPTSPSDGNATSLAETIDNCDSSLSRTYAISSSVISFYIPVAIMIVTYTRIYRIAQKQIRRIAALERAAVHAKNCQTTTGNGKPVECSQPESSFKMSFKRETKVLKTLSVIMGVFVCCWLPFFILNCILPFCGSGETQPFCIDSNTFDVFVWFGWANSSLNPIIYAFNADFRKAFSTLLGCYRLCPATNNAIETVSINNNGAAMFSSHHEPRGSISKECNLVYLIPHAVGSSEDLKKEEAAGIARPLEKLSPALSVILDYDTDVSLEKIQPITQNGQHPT
# Description: Mouse fibroblast cells expressing the human D1R at high density (LhD1 cells) are used. The cells are grown to confluence in DMEM containing 10% FetalClone1 serum (FCS, HyClone), 0.05% penicillin–streptomycin (pen-strep), and 400 μg/mL of Geneticin (G418). Three confluent 150 mm plates yield enough membranes for three assay plates with ∼10–15 μg protein per well. The cells from three 150 mm plates are scraped and centrifuged at 500×g for 5 min. The pellet is overlaid with 2 mL assay buffer (50 mM Tris–HCl containing 120 mM NaCl, 5 mM KCl, 2 mM CaCl2, and 1 mM MgCl2) and frozen at −70 °C. On the day of experiment, the pellet is homogenized in 30 mL assay buffer with a polytron. Cell homogenate (100 μL) is added to wells containing 800 μL of test drug or buffer. After a 10 min preincubation, 100 μL of [^3H]SCH-23390 (0.18 nM final concentration) is added. The plates are incubated at 25 C for 60 min. The reaction is terminated by filtration using a Tomtec 96 well harvester, and the radioactivity on the filters is determined using a PerkinElmer microbeta scintillation counter. Nonspecific binding is determined with 1 μM SCH-23390.
# 5-HT2AR [2] = biological target: T1, 5-HT2AR; experiment: 5-HT2A IP-1 formation (HEK-h5HT2A cells); settings: for % inhib., 5-HT2A IP-1 formation: antagonist mode, normalized to the inhibition by 10 μM ketanserin; for functional behavior at 5-HT2AR: in words
# Description: HEK-h5HT2A or HEK-h5HT2C cells are used as the tissue source. The day before the experiment, cells are plated in 24-well plates at a density of 400,000 cells per well using DMEM supplemented with charcoal-stripped FetalClone. Drugs are made up in stimulation buffer supplied in the kit. Medium is removed from the well, test compounds or serotonin or antagonist or buffer is added, and the cells are incubated for 1 h. The cells are lysed for 30 min, and 50 μL of cell lysate is added to the IP-1 plates. After the addition of appropriate antibodies, the plates are incubated for 3 h, washed six times, incubated with the substrate for 20 min, and, after termination of the reaction, the plate is read on a plate reader at 450 nm with a correction at 620 nm.
SMILES,Ki (5-HT2AR [1]) [µM],EC50 (human 5-HT1AR) [µM],"% stimul., 5-HT1A [35S]GTPγS binding (human 5-HT1AR) [%]",functional behavior at 5-HT1AR (human 5-HT1AR),Ki (human D1R) [µM],"% inhib., 5-HT2A IP-1 formation (5-HT2AR [2])",functional behavior at 5-HT2AR (5-HT2AR [2])
"O=C(NCCCCN1CCN(c2cccc(Cl)c2Cl)CC1)C1COC(c2ccccc2)(c2ccccc2)CO1 (centres unmarked) [compound 6, N-(4-(4-(2,3-Dichlorophenyl)piperazin-1-yl)butyl)-5,5-diphenyl-1,4-dioxane-2-carboxamide]",0.028 ± 0.006,0.0239 ± 0.0088,90.8,efficacious 5-HT1AR and D4R agonists with high potency,0.7 ± 0.15,(88.6) %,"efficacious D2R and 5-HT2AR antagonists with high and low potency, respectively"
"O=C(NCCCCN1CCN(c2cccc(Cl)c2Cl)CC1)C1COc2ccccc2O1 (centres unmarked) [compound 9, N-(4-(4-(2,3-Dichlorophenyl)piperazin-1-yl)butyl)-2,3-dihydrobenzo[b][1,4]dioxine-2-carboxamide]",0.062 ± 0.015,0.0227 ± 0.00082,96.3,efficacious 5-HT1AR and D4R agonists with high potency,0.68 ± 0.16,(86.8) %,"efficacious D2R and 5-HT2AR antagonists with high and low potency, respectively"
"O=C(NCCCCN1CCN(c2cccc(Cl)c2Cl)CC1)C1COCC(c2ccccc2)(c2ccccc2)O1 (centres unmarked) [compound 3, N-(4-(4-(2,3-Dichlorophenyl)piperazin-1-yl)butyl)-6,6-diphenyl-1,4-dioxane-2-carboxamide]",0.257 ± 0.038,0.232 ± 0.019,82.7,5-HT1AR full agonist,0.442 ± 0.052,(45.4) %,–
